Here are results for 18 compounds from ChEMBL document CHEMBL4373736, “Synthesis and biological evaluation of panaxatriol derivatives against myocardial ischemia/reperfusion injury in the rat” (Eur J Med Chem, 2020).

Activity calls are given as the source filed them. The rule behind the calls is not given here.

Series [1] concerns Cardiac muscle cell. The series can be described thus: Cytoprotective activity against OGD/reperfusion induced injury in Sprague-Dawley rat cardiomyocytes assessed as effect on cell viability at 10 uM pretreated for 24 hrs followed by OGD for 2 hrs and subsequent reperfusion for 24 hrs (reference value: 43.9 to 45.4 +/- 1.1 %). The class given is functional.
The subject of series [2] is Rattus norvegicus. Put plainly: Cardioprotective activity in Sprague-Dawley rat model of LAD coronary artery ligation-induced ischemia/reperfusion assessed as infarct size of left ventricle size at 40 mg/kg, ig pretreated twice a day for 3 days and measured 24 hrs post-reperfusion by TTC staining based assay (reference value: 49.1 %). The series is classed as functional.

In series [3] the test system is Cardiac muscle cell. Put plainly: Cytoprotective activity against OGD/reperfusion induced injury in Sprague-Dawley rat cardiomyocytes assessed as effect on cell viability at 1 uM pretreated for 24 hrs followed by OGD for 2 hrs and subsequent reperfusion for 24 hrs (reference value: 43.9 to 45.4 +/- 1.1 %). The class given is functional.
The subject of series [4] is Cardiac muscle cell. Put plainly: Cytoprotective activity against OGD/reperfusion induced injury in Sprague-Dawley rat cardiomyocytes assessed as effect on cell viability at 0.1 uM pretreated for 24 hrs followed by OGD for 2 hrs and subsequent reperfusion for 24 hrs (reference value: 43.9 to 45.4 +/- 1.1 %). The class given is functional.
For series [5], the system named is Cardiac muscle cell. The series can be described thus: Cytotoxicity against Sprague-Dawley rat cardiomyocytes assessed as inhibition of cell growth at 10 uM treated for 50 hrs by MTT assay. The class given is cell-based. A general note: Tetrazolium assays rely on reduction of a dye to a coloured formazan, in cell work by metabolically active cells.
Series [6] has as its system Rattus norvegicus. The series can be described thus: Cardioprotective activity in Sprague-Dawley rat model of LAD coronary artery ligation-induced ischemia/reperfusion assessed as infarct size of left ventricle size at 20 mg/kg, ig pretreated twice a day for 3 days and measured 24 hrs post-reperfusion by TTC staining based assay (reference value: 49.1 %). The class given is functional.

In series [7] the test system is Rattus norvegicus. Put plainly: Cardioprotective activity in ig dosed Sprague-Dawley rat model of LAD coronary artery ligation-induced ischemia/reperfusion assessed as as infarct size of left ventricle size pretreated twice a day for 3 days and measured 24 hrs post-reperfusion by TTC staining based assay. The series is classed as functional, organism-based.
The test system of series [8] is Rattus norvegicus. Put plainly: Cardioprotective activity in ig dosed Sprague-Dawley rat model of LAD coronary artery ligation-induced ischemia/reperfusion assessed as reduction in serum cardiac troponin1 level pretreated twice a day for 3 days and measured 24 hrs post-reperfusion. The series is classed as functional, organism-based.
Series [9] relates to Rattus norvegicus. Put plainly: Cardioprotective activity in ig dosed Sprague-Dawley rat model of LAD coronary artery ligation-induced ischemia/reperfusion assessed as myocardial cell swelling at 10 to 40 mg/kg, ig pretreated twice a day for 3 days and measured 24 hrs post-reperfusion by hematoxylin and eosin staining based assay. The class given is functional, organism-based.

In series [10] the test system is Rattus norvegicus. The series can be described thus: Cardioprotective activity in ig dosed Sprague-Dawley rat model of LAD coronary artery ligation-induced ischemia/reperfusion assessed as change in myocardial structure at 10 to 40 mg/kg, ig pretreated twice a day for 3 days and measured 24 hrs post-reperfusion by hematoxylin and eosin staining based assay. The class given is functional, organism-based.

For `CC1(C)CCC[C@](C)([C@H]2CC[C@]3(C)[C@@H]2[C@H](O)C[C@@H]2[C@@]4(C)CC[C@H](O)C(C)(C)[C@@H]4[C@H](O)C[C@]23C)O1`, the Activity in the series with Cardiac muscle cell [1] was 61.9%; in the series with Rattus norvegicus [2], 30.6%; in the series with Cardiac muscle cell [3], 52.3%; with Cardiac muscle cell [4], 47.8%; with Cardiac muscle cell [5] it was “Non-Toxic”.
As for `C[C@H](CS)C(=O)N1CCC[C@H]1C(=O)O` [CAPTOPRIL], in the series with Rattus norvegicus [6], the Activity amounted to 34%.
In the case of `CC1(C)CCC[C@](C)([C@H]2CC[C@]3(C)[C@@H]2[C@H](O)C[C@@H]2[C@@]4(C)Cc5c(C(=O)O)noc5C(C)(C)[C@@H]4[C@H](O)C[C@]23C)O1`, the Activity in the series on Cardiac muscle cell [1] was 89.2%; in the series with Rattus norvegicus [2], 20.5%; in the series with Rattus norvegicus [7], “Dose-dependent effect”; in the series on Cardiac muscle cell [3] it was 79.2%; in the series with Cardiac muscle cell [4], 68.2%; with Cardiac muscle cell [5] it was “Non-Toxic”. For the same compound, the inhibition entry in the series with Rattus norvegicus [8] is “Dose-dependent effect”. The result in the series with Rattus norvegicus [9] and in the series on Rattus norvegicus [10] was inactive.
`CC1(C)CCC[C@](C)([C@H]2CC[C@]3(C)[C@@H]2[C@H](O)C[C@@H]2[C@@]4(C)Cc5c([nH]c6ccccc56)C(C)(C)[C@@H]4C(=O)C[C@]23C)O1`: the Activity in the series on Cardiac muscle cell [1] was 71.1%; with Cardiac muscle cell [3] it was 64.3%; in the series on Cardiac muscle cell [4] it was 56.9%; in the series with Cardiac muscle cell [5] it was “Non-Toxic”.
The matching figures for `CC1(C)CCC[C@](C)([C@H]2CC[C@]3(C)[C@@H]2[C@H](O)C[C@@H]2[C@@]4(C)Cc5c([nH]c6c(F)cccc56)C(C)(C)[C@@H]4C(=O)C[C@]23C)O1`: 62.6%, 58%, 53.5% and “Non-Toxic”.
For `CC(C)c1nc2c(s1)C[C@]1(C)[C@H]3C[C@@H](O)[C@@H]4[C@@H]([C@@]5(C)CCCC(C)(C)O5)CC[C@@]4(C)[C@]3(C)CC(=O)[C@H]1C2(C)C`, the Activity with Cardiac muscle cell [1] was 66%; with Cardiac muscle cell [3], 59.5%; in the series with Cardiac muscle cell [4] it was 50.6%; with Cardiac muscle cell [5] it was “Non-Toxic”.
Regarding `CC1(C)CCC[C@](C)([C@H]2CC[C@]3(C)[C@@H]2[C@H](O)C[C@@H]2[C@@]4(C)Cc5c[nH]nc5C(C)(C)[C@@H]4[C@H](O)C[C@]23C)O1`, the Activity is 61.7% in the series with Cardiac muscle cell [1], 55.9% with Cardiac muscle cell [3], 48.6% with Cardiac muscle cell [4] and “Non-Toxic” with Cardiac muscle cell [5].
The like results for `CC1(C)CCC[C@](C)([C@H]2CC[C@]3(C)[C@@H]2[C@H](O)C[C@@H]2[C@@]4(C)Cc5sc(-c6ccccc6)nc5C(C)(C)[C@@H]4C(=O)C[C@]23C)O1` were, in that order, 75.3%, 68%, 59.1% and “Non-Toxic”.
The matching figures for `CC1(C)CCC[C@](C)([C@H]2CC[C@]3(C)[C@@H]2[C@H](O)C[C@@H]2[C@@]4(C)Cc5c(CO)noc5C(C)(C)[C@@H]4[C@H](O)C[C@]23C)O1`: 66.8%, 60.9%, 55.1% and “Non-Toxic”.
The matching figures for `CC1(C)CCC[C@](C)([C@H]2CC[C@]3(C)[C@@H]2[C@H](O)C[C@@H]2[C@@]4(C)Cc5sc(-c6cccnc6)nc5C(C)(C)[C@@H]4C(=O)C[C@]23C)O1`: 57.2%, 51.3%, 46.9% and “Non-Toxic”.
With `CC1(C)CCC[C@](C)([C@H]2CC[C@]3(C)[C@@H]2[C@H](O)C[C@@H]2[C@@]4(C)Cc5c(CO)nn(-c6ccccc6)c5C(C)(C)[C@@H]4[C@H](O)C[C@]23C)O1`, the Activity was 61.2% in the series on Cardiac muscle cell [1], 56.6% in the series on Cardiac muscle cell [3], 51.6% with Cardiac muscle cell [4] and “Non-Toxic” with Cardiac muscle cell [5].
The matching figures for `CC1(C)CCC[C@](C)([C@H]2CC[C@]3(C)[C@@H]2[C@H](O)C[C@@H]2[C@@]4(C)Cc5sc(Br)nc5C(C)(C)[C@@H]4C(=O)C[C@]23C)O1`: 77.2%, 69.2%, 59.5% and “Non-Toxic”.
The matching figures for `Cc1ccc2[nH]c3c(c2c1)C[C@]1(C)[C@H]2C[C@@H](O)[C@@H]4[C@@H]([C@@]5(C)CCCC(C)(C)O5)CC[C@@]4(C)[C@]2(C)CC(=O)[C@H]1C3(C)C`: 73.8%, 66.4%, 58.9% and “Non-Toxic”.
In the case of `C=CCNc1nc2c(s1)C[C@]1(C)[C@H]3C[C@@H](O)[C@@H]4[C@@H]([C@@]5(C)CCCC(C)(C)O5)CC[C@@]4(C)[C@]3(C)CC(=O)[C@H]1C2(C)C`, the Activity is on record as 77.4% in the series with Cardiac muscle cell [1], 70% in the series on Cardiac muscle cell [3], 61.6% with Cardiac muscle cell [4] and “Non-Toxic” in the series on Cardiac muscle cell [5].
Take `CC1(C)CCC[C@](C)([C@H]2CC[C@]3(C)[C@@H]2[C@H](O)C[C@@H]2[C@@]4(C)Cc5nccnc5C(C)(C)[C@@H]4C(=O)C[C@]23C)O1`: the Activity in the series on Cardiac muscle cell [1] is 71.5%; with Cardiac muscle cell [3], 64%; with Cardiac muscle cell [4], 56.4%; in the series with Cardiac muscle cell [5] it was “Non-Toxic”.
Turning to `CC1(C)CCC[C@](C)([C@H]2CC[C@]3(C)[C@@H]2[C@H](O)C[C@@H]2[C@@]4(C)Cc5sc(CC#N)nc5C(C)(C)[C@@H]4C(=O)C[C@]23C)O1`, the Activity with Cardiac muscle cell [1] was 70.1%; in the series on Cardiac muscle cell [3], 64.6%; in the series on Cardiac muscle cell [4], 58.6%; with Cardiac muscle cell [5], “Non-Toxic”.
Take `CC1(C)CCC[C@](C)([C@H]2CC[C@]3(C)[C@@H]2[C@H](O)C[C@@H]2[C@@]4(C)Cc5c([nH]c6ccc(S(N)(=O)=O)cc56)C(C)(C)[C@@H]4C(=O)C[C@]23C)O1`: the Activity is 66.3% in the series on Cardiac muscle cell [1], 61.5% in the series with Cardiac muscle cell [3], 55.1% in the series on Cardiac muscle cell [4] and “Non-Toxic” in the series on Cardiac muscle cell [5].
Consider `CC1(C)CCC[C@](C)([C@H]2CC[C@]3(C)[C@@H]2[C@H](O)C[C@@H]2[C@@]4(C)Cc5nccnc5C(C)(C)[C@@H]4[C@@H](O)C[C@]23C)O1`, for which the Activity is 70.3% in the series on Cardiac muscle cell [1], 62.3% with Cardiac muscle cell [3], 54.9% in the series with Cardiac muscle cell [4] and “Non-Toxic” with Cardiac muscle cell [5].
